According to patent US20090318469A1, “Use of Flibanserin for the Treatment of Sexual Disorders in Females” (Boehringer Ingelheim International GmbH, priority 2006, published 2009):

Columns and labels:
5-HT2-receptor = conditions: background statement, qualitative; cited from earlier work
5-HT1A receptor = target: T1, 5-HT1A receptor (Homo sapiens, UniProt P08908); conditions: background statement, qualitative; cited from earlier work
T1 sequence (P08908 1-422): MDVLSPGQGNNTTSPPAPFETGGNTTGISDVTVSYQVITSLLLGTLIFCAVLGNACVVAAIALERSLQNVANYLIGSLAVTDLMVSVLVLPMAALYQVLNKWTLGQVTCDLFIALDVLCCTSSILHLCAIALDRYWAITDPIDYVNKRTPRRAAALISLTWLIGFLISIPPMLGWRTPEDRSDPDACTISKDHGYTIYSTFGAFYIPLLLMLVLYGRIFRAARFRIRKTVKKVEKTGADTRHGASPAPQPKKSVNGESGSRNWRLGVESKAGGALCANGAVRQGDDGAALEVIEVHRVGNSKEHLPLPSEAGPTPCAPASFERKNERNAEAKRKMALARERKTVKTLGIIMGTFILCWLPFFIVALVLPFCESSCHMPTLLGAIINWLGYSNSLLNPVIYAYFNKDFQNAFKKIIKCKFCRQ

[1] = test system: Sexual Disorders and/or Dysfunctions; assay: studies of female patients suffering from Sexual Disorders; assay type: in vivo; conditions: free base or acceptable derivative, qualitative

In the case of `O=c1[nH]c2ccccc2n1CCN1CCN(c2cccc(C(F)(F)F)c2)CC1` [Flibanserin, 1-[2-(4-(3-trifluoromethyl-phenyl)piperazin-1-yl)ethyl]-2,3-dihydro-1H-benzimidazol-2-one], the “affinity for the 5-HT2-receptor” value (5-HT2-receptor) is given as “shows affinity”, the “affinity for the 5-HT1A receptor” value (5-HT1A receptor) is given as “shows affinity” and the “effect on Sexual Disorders and/or Dysfunctions” value [1] is given as “positive effect”.
